One test addresses T1, ASK1/MAP3K5 (Homo sapiens, UniProt Q99683).
T1 sequence (Q99683 1-1374): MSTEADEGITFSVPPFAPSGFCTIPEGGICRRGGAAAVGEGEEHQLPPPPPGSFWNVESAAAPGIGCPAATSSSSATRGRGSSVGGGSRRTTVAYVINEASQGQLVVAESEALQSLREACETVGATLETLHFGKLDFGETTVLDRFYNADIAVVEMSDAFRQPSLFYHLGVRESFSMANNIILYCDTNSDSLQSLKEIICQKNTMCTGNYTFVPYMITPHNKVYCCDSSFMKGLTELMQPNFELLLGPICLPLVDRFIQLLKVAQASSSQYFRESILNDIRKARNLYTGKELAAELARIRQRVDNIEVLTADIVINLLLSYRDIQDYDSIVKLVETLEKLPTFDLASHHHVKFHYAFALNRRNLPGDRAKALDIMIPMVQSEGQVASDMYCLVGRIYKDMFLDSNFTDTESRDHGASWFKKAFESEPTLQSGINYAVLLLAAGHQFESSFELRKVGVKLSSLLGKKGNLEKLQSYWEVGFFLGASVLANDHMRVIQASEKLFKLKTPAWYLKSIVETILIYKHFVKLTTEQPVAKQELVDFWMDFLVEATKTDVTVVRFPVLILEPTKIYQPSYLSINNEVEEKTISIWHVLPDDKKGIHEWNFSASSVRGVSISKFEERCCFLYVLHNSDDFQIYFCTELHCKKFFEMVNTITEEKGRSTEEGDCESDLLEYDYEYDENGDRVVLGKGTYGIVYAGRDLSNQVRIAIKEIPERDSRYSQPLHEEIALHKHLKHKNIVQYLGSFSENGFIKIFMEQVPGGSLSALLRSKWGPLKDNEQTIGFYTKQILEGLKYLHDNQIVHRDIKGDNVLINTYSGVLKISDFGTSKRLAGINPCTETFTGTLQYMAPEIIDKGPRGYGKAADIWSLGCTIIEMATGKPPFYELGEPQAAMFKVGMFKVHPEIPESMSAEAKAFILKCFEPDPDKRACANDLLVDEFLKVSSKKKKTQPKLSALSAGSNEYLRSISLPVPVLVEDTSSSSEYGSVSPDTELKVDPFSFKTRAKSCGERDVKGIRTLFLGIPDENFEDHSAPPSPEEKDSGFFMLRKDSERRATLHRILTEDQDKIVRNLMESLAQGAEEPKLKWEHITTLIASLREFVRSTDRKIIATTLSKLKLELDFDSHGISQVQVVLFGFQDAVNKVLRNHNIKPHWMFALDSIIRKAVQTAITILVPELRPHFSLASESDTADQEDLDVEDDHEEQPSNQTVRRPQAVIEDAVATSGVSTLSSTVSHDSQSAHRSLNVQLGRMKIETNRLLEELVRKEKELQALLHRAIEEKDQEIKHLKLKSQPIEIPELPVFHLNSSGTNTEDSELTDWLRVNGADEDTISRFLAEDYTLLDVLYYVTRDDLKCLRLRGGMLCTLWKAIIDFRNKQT
The note with it: 1 μM; Run 1, Run 2.

The target in another test is MEKK1 (Homo sapiens, UniProt Q13233). The note with it: 1 μM; Run 1, Run 2.
Chain of MEKK1 (Q13233 whole entry): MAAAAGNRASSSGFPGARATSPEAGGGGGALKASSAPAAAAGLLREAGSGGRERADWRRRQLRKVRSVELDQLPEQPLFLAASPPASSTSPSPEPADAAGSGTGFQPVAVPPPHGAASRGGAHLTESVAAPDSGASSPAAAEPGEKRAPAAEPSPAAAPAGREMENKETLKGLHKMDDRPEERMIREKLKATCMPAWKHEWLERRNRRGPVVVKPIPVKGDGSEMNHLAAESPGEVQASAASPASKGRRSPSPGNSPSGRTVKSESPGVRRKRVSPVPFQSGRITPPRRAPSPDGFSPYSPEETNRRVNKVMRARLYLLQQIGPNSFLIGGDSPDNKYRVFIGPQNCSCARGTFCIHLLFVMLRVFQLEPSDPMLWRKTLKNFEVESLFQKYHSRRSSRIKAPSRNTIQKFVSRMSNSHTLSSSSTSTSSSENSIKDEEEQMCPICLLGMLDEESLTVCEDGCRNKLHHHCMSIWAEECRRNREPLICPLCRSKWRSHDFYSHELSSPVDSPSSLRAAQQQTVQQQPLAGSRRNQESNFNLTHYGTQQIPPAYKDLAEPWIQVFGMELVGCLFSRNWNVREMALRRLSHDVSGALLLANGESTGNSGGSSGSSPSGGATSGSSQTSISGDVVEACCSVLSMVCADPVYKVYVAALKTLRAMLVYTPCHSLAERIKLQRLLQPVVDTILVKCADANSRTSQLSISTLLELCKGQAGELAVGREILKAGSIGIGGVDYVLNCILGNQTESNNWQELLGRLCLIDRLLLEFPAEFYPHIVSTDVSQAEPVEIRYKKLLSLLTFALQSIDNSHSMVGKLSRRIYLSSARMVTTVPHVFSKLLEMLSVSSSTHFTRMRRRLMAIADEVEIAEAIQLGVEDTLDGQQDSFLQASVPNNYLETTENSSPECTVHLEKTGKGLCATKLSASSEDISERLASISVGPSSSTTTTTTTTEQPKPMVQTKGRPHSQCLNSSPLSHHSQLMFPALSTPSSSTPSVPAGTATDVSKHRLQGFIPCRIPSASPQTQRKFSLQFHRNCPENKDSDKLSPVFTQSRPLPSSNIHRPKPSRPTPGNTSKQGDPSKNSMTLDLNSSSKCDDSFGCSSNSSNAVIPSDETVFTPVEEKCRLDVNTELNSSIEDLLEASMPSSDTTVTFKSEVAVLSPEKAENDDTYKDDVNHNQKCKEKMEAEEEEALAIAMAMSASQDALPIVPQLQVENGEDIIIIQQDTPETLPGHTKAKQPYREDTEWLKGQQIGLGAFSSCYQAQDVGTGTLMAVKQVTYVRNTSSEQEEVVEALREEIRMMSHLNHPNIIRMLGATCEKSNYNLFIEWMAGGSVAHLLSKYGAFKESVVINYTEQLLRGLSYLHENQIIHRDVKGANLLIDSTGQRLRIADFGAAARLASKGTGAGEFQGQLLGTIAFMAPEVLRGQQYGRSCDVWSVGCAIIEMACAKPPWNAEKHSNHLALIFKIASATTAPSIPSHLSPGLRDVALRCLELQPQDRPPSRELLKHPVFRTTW
The target in a further test is T2, NEK2 (Homo sapiens, UniProt P51955).
T2 sequence (P51955 1-445): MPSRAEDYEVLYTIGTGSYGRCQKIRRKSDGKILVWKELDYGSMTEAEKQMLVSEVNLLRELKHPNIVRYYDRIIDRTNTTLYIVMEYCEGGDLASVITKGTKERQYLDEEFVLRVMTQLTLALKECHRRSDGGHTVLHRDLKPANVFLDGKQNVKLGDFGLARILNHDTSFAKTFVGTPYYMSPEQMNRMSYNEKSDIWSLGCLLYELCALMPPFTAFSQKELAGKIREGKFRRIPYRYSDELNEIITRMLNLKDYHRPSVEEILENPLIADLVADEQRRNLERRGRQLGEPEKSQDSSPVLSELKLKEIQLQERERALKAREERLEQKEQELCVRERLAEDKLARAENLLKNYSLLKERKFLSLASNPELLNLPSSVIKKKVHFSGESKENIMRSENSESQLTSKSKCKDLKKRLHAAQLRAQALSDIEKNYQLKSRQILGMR
The note with it: 1 μM; Run 1, Run 2.

Another test deals with PKAcb (Homo sapiens, UniProt P22694). The note with it: 1 μM; Run 1, Run 2.
The target of another test is CDK14/cyclin Y (PFTK1) (Homo sapiens, UniProt O94921). Put plainly: biochemical. The note with it: read-out: % enzyme activity, 1 μM; Run 1, Run 2.
Chain of CDK14/cyclin Y (PFTK1) (O94921 whole entry): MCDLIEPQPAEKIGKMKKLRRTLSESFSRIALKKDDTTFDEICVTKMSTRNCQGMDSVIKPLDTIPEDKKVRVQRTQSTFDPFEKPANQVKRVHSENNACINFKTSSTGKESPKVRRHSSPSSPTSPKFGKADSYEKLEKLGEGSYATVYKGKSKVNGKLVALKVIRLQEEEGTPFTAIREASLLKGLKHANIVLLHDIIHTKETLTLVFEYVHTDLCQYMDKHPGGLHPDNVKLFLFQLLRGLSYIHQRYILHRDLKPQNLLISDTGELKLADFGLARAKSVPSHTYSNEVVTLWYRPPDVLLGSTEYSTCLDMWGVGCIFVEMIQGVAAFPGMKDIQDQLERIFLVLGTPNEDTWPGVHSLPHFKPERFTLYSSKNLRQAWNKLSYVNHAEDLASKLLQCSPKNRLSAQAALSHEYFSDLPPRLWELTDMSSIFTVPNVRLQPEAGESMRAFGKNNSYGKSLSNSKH
Chain of CDK14/cyclin Y (PFTK1) (Q8ND76 whole entry partner): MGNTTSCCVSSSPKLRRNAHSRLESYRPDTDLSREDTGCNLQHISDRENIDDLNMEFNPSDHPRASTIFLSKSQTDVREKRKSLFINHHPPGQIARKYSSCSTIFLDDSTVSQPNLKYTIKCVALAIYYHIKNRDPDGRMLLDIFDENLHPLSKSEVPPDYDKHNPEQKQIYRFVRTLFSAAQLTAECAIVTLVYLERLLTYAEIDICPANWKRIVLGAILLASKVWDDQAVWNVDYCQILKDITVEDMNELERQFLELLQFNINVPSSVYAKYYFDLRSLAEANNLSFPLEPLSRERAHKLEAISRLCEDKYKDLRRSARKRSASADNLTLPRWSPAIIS
The next test concerns the target T3, LCK2/ICK (Homo sapiens, UniProt Q9UPZ9).
T3 sequence (Q9UPZ9 1-632): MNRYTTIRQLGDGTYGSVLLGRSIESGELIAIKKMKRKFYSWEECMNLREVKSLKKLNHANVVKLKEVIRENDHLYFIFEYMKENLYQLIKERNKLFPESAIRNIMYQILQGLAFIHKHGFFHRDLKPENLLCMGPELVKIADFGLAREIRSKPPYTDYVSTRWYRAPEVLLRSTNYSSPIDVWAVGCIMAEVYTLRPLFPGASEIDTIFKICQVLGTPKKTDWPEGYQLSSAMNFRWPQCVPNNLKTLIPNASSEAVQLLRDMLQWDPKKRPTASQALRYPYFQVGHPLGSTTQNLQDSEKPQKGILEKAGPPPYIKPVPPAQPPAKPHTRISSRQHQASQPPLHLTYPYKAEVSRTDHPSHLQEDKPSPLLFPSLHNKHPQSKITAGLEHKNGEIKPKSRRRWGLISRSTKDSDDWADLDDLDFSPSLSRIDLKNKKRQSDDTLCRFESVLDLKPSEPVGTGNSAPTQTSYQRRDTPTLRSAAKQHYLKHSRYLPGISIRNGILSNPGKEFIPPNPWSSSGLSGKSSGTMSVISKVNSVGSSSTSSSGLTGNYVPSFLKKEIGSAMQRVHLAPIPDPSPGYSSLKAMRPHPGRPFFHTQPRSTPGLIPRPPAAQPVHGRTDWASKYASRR
Put plainly: biochemical. The note with it: read-out: % enzyme activity, 1 μM; Run 1, Run 2.

Where “and” joins values, the source holds several entries; their conditions need not be identical. Identical values can stand only once.

As for `COc1cc(-c2cncc(-c3ccc(N4CCN(C)CC4)cc3)c2C)cc(F)c1C(N)=O` [Compound 26a, 2-Fluoro-6-methoxy-4-(4-methyl-5-(4-(4-methylpiperazin-1-yl)phenyl)pyridin-3-yl)benzamide], the % enzyme activity at 1 μM in the test with ALK2/ACVR1 was 9.92% and 8.63%. Further, the “% enzyme activity” value on ASK1/MAP3K5 worked out at 94.20%; on MEKK1, 92.92%; at NEK2, 90.39%; at PKAcb, 95.19%. For the same compound, the remaining activity at 1 µM at CDK14/cyclin Y (PFTK1) came to 98.4%; at LCK2/ICK it was 108%.
With `COc1cc(-c2cncc(-c3ccc(N4C[C@@H](C)N(C)[C@@H](C)C4)cc3)c2C)cc(F)c1C(N)=O` [Compound 26c, 2-Fluoro-6-methoxy-4-(4-methyl-5-(4-((3R,5S)-3,4,5-trimethylpiperazin-1-yl)phenyl)pyridin-3-yl)benzamide], the % enzyme activity at 1 μM in the test with ALK2/ACVR1 is 13.7% and 11.7%. For the same compound, the “% enzyme activity” value at ASK1/MAP3K5 is given as 96.09%; on MEKK1 it was 97.31%; at NEK2, 96.23%; at PKAcb, 96.20%. The remaining activity at 1 µM is 99.8% on CDK14/cyclin Y (PFTK1) and 97.5% on LCK2/ICK.
